The values that follow come from patent US8501936B2 (priority 2009, dated 2013).

In one test the target is human FAK (Homo sapiens (Human), UniProt Q05397). The note with it: read-out: FAK IC50.
A further test deals with human JAK2 (Homo sapiens (Human), UniProt O60674). The note with it: read-out: JAK2 IC50.
human JAK2, sequence (O60674 815-1132): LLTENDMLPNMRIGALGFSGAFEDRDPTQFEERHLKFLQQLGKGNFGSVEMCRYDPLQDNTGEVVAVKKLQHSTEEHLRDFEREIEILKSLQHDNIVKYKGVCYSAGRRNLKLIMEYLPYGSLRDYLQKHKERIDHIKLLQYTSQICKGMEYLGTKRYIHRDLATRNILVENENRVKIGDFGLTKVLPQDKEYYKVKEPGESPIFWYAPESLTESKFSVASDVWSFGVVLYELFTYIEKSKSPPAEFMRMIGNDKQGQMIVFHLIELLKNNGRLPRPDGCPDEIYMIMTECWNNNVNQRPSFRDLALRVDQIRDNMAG

human FAK, sequence (Q05397 whole entry): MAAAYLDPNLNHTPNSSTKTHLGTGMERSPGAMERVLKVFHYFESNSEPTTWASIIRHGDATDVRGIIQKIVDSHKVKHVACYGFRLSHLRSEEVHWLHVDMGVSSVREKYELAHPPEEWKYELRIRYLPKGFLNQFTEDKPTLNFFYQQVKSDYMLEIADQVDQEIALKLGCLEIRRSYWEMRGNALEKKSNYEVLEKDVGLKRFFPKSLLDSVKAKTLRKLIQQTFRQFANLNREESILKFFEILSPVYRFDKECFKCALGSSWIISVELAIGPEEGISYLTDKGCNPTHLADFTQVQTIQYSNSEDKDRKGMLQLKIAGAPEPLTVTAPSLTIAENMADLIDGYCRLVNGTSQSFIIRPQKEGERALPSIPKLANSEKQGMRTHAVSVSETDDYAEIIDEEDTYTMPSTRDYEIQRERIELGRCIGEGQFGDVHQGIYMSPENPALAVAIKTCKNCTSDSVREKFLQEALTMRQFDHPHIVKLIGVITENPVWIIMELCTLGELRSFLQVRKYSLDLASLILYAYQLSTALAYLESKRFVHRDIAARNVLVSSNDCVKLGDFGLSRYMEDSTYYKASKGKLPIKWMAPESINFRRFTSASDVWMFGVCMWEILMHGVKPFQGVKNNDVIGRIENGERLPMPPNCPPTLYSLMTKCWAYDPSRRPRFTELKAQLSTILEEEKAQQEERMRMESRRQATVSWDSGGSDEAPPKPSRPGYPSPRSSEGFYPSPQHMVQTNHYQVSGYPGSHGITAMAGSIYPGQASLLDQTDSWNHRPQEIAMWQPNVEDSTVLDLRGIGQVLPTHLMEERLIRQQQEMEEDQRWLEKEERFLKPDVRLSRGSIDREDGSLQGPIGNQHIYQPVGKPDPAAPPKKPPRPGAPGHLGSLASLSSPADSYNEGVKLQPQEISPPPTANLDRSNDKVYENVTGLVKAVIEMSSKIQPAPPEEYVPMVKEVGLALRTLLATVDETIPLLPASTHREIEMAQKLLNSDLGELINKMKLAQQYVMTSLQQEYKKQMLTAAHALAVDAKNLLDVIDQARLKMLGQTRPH

Consider `CN(c1ccc(-c2cccn3nc(Nc4ccc(CN5CCS(=O)(=O)CC5)cc4)nc23)cc1)S(C)(=O)=O` [Example 119, N-{4-[2-({4-[(1,1-dioxidothiomorpholin-4-yl)methyl]phenyl}amino)[1,2,4]triazolo[1,5-a]pyridin-8-yl]phenyl}-N-methylmethanesulfonamide], for which the IC50 was found to be 10000 nM at human FAK and 0.27 nM at human JAK2.

Take `CS(=O)(=O)c1ccc(-c2cccn3nc(Nc4cccc(CN5CCS(=O)(=O)CC5)c4)nc23)cc1` [Example 120, N-{3-[(1,1-dioxidothiomorpholin-4-yl)methyl]phenyl}-8-[4-(methylsulfonyl)phenyl][1,2,4]triazolo[1,5-a]pyridin-2-amine]: the IC50 on human FAK is 2000 nM; on human JAK2 it was 0.67 nM.

Take `CS(=O)(=O)c1ccc(-c2cccc3nc(Nc4cccc(CN5CCS(=O)(=O)CC5)c4)nn23)cc1` [Example 121, N-{3-[(1,1-dioxidothiomorpholin-4-yl)methyl]phenyl}-5-[4-(methylsulfonyl)phenyl][1,2,4]triazolo[1,5-a]pyridin-2-amine]: the IC50 on human FAK was determined as 999 nM; on human JAK2 it was 0.55 nM.

For `CN1CCN(c2ccc(Nc3nc4c(NCc5cccnc5N(C)S(C)(=O)=O)cccn4n3)cc2)CC1` [Example 122, N-Methyl-N-[3-({2-[4-(4-methyl-piperazin-1-yl)-phenylamino]-[1,2,4]triazolo[1,5-a]pyridin-8-ylamino}-methyl)-pyridin-2-yl]-methanesulfonamide], the IC50 at human FAK turned out to be 30 nM; on human JAK2 it was 20.7 nM.

Consider `CN1CCC(c2ccc(Nc3nc4c(NCc5cccnc5N(C)S(C)(=O)=O)cccn4n3)cc2)CC1` [Example 123, N-Methyl-N-[3-({2-[4-(1-methyl-piperidin-4-yl)-phenylamino]-[1,2,4]triazolo[1,5-a]pyridin-8-ylamino}-methyl)-pyridin-2-yl]-methanesulfonamide], for which the IC50 at human FAK is 77.3 nM; at human JAK2, 40.3 nM.

`CN(c1ncccc1CNc1cccn2nc(Nc3ccc(OCCN4CCCC4)cc3)nc12)S(C)(=O)=O` [Example 124, N-Methyl-N-[3-({2-[4-(2-pyrrolidin-1-yl-ethoxy)-phenylamino]-[1,2,4]triazolo[1,5-a]pyridin-8-ylamino}-methyl)-pyridin-2-yl]-methanesulfonamide]: the results for the IC50 on human FAK and on human JAK2 were 59.7 nM and 41.2 nM, respectively.

In the case of `CN1CCC(c2ccc(Nc3nc4c(Nc5ccccc5S(C)(=O)=O)cccn4n3)cc2)CC1` [Example 125, N(8)-(2-Methanesulfonyl-phenyl)-N(2)-[4-(1-methyl-piperidin-4-yl)-phenyl]-[1,2,4]triazolo[1,5-a]pyridine-2,8-diamine], the IC50 amounted to 2050 nM on human FAK and 6.6 nM at human JAK2.

Take `CS(=O)(=O)c1ccccc1Nc1cccn2nc(Nc3ccc(OCCN4CCCC4)cc3)nc12` [Example 126, N(8)-(2-Methanesulfonyl-phenyl)-N(2)-[4-(2-pyrrolidin-1-yl-ethoxy)-phenyl]-[1,2,4]triazolo[1,5-a]pyridine-2,8-diamine]: the values for the IC50 on human FAK and on human JAK2 were 1300 nM and 14.3 nM, respectively.

As to `CN(c1cccc(-c2cccn3nc(Nc4ccc(OCCN5CCCC5)cc4)nc23)c1)S(C)(=O)=O` [Example 128, N-Methyl-N-(3-{2-[4-(2-pyrrolidin-1-yl-ethoxy)-phenylamino]-[1,2,4]triazolo[1,5-a]pyridin-8-yl}-phenyl)-methanesulfonamide], the IC50 worked out at 2310 nM on human FAK and 34 nM on human JAK2.

In the case of `CN1CCC(c2cccc(Nc3nc4c(-c5cccc(N(C)S(C)(=O)=O)c5)cccn4n3)c2)CC1` [Example 129, N-Methyl-N-(3-{2-[3-(1-methyl-piperidin-4-yl)-phenylamino]-[1,2,4]triazolo[1,5-a]pyridin-8-yl}-phenyl)-methanesulfonamide], the concentration for half-maximal inhibition (IC50) at human FAK stood at 759 nM; on human JAK2, 8.88 nM.

Consider `CN1CCC(c2cccc(Nc3nc4c(-c5ccccc5N(C)S(C)(=O)=O)cccn4n3)c2)CC1` [Example 130, N-Methyl-N-(2-{2-[3-(1-methyl-piperidin-4-yl)-phenylamino]-[1,2,4]triazolo[1,5-a]pyridin-8-yl}-phenyl)-methanesulfonamide], for which the IC50 at human FAK worked out at 3000 nM; on human JAK2 it was 1200 nM.

Turning to `CN1CCN(c2ccc(Nc3nc4c(Nc5cccnc5N(C)S(C)(=O)=O)cccn4n3)cc2)CC1` [Example 131, N-Methyl-N-(3-{2-[4-(4-methyl-piperazin-1-yl)-phenylamino]-[1,2,4]triazolo[1,5-a]pyridin-8-ylamino}-pyridin-2-yl)-methanesulfonamide], the IC50 amounted to 1370 nM on human FAK and 11.4 nM at human JAK2.

As to `CN(c1ncccc1Nc1cccn2nc(Nc3ccc(OCCN4CCCC4)cc3)nc12)S(C)(=O)=O` [Example 132, N-Methyl-N-(3-{2-[4-(2-pyrrolidin-1-yl-ethoxy)-phenylamino]-[1,2,4]triazolo[1,5-a]pyridin-8-ylamino}-pyridin-2-yl)-methanesulfonamide], the IC50 at human FAK is 3000 nM; on human JAK2, 33.1 nM.

Turning to `CN1CCC(c2ccc(Nc3nc4c(Nc5cccnc5N(C)S(C)(=O)=O)cccn4n3)cc2)CC1` [Example 133, N-Methyl-N-(3-{2-[4-(1-methyl-piperidin-4-yl)-phenylamino]-[1,2,4]triazolo[1,5-a]pyridin-8-ylamino}-pyridin-2-yl)-methanesulfonamide], the figures for the IC50 on human FAK and at human JAK2 were 2070 nM and 17.4 nM, respectively.

With `CN(c1ncccc1CNc1cccn2nc(Nc3ccc(S(C)(=O)=O)cc3)nc12)S(C)(=O)=O` [Example 134, N-(3-{[2-(4-Methanesulfonyl-phenylamino)-[1,2,4]triazolo[1,5-a]pyridin-8-ylamino]-methyl}-pyridin-2-yl)-N-methyl-methanesulfonamide], the values for the IC50 on human FAK and on human JAK2 were 752 nM and 17.3 nM, respectively.

For `CN(c1ncccc1CNc1cccn2nc(Nc3cccc(S(C)(=O)=O)c3)nc12)S(C)(=O)=O` [Example 135, N-(3-{[2-(3-Methanesulfonyl-phenylamino)-[1,2,4]triazolo[1,5-a]pyridin-8-ylamino]-methyl}-pyridin-2-yl)-N-methyl-methanesulfonamide], the IC50 was found to be 215 nM at human FAK and 77.8 nM on human JAK2.

For the molecule `CN1CCN(c2cccc(Nc3nc4c(NCc5cccnc5N(C)S(C)(=O)=O)cccn4n3)c2)CC1` [Example 136, N-Methyl-N-[3-({2-[3-(4-methyl-piperazin-1-yl)-phenylamino]-[1,2,4]triazolo[1,5-a]pyridin-8-ylamino}-methyl)-pyridin-2-yl]-methanesulfonamide], the results for the IC50 at human FAK and on human JAK2 were 71.1 nM and 77.2 nM, respectively.

On to `COc1cc(N2CCN(C)CC2)ccc1Nc1nc2c(NCc3cccnc3N(C)S(C)(=O)=O)cccn2n1` [Example 137, N-[3-({2-[2-Methoxy-4-(4-methyl-piperazin-1-yl)-phenylamino]-[1,2,4]triazolo[1,5-a]pyridin-8-ylamino}-methyl)-pyridin-2-yl]-N-methyl-methanesulfonamide], for which the IC50 is 39.7 nM on human FAK and 3000 nM on human JAK2.

Consider `CN1CCN(c2ccc(Nc3nc4c(NCc5ccccc5S(C)(=O)=O)cccn4n3)cc2)CC1` [Example 138, N(8)-(2-Methanesulfonyl-benzyl)-N(2)-[4-(4-methyl-piperazin-1-yl)-phenyl]-[1,2,4]triazolo[1,5-a]pyridine-2,8-diamine], for which the IC50 on human FAK was 199 nM; on human JAK2 it was 13.2 nM.

Regarding `CN1CCN(c2cccc(Nc3nc4c(NCc5ccccc5S(C)(=O)=O)cccn4n3)c2)CC1` [Example 139, N(8)-(2-Methanesulfonyl-benzyl)-N(2)-[3-(4-methyl-piperazin-1-yl)-phenyl]-[1,2,4]triazolo[1,5-a]pyridine-2,8-diamine], the IC50 on human FAK turned out to be 200 nM; at human JAK2, 26.3 nM.

For `CN1CCC(c2ccc(Nc3nc4c(NCc5ccccc5S(C)(=O)=O)cccn4n3)cc2)CC1` [Example 140, N(8)-(2-Methanesulfonyl-benzyl)-N(2)-[4-(1-methyl-piperidin-4-yl)-phenyl]-[1,2,4]triazolo[1,5-a]pyridine-2,8-diamine], the IC50 was 124 nM on human FAK and 22.6 nM on human JAK2.

For the molecule `CS(=O)(=O)c1ccccc1CNc1cccn2nc(Nc3ccc(OCCN4CCCC4)cc3)nc12` [Example 141, N(8)-(2-Methanesulfonyl-benzyl)-N(2)-[4-(2-pyrrolidin-1-yl-ethoxy)-phenyl]-[1,2,4]triazolo[1,5-a]pyridine-2,8-diamine], the 50% inhibitory concentration (IC50) came to 98.8 nM at human FAK and 15.1 nM on human JAK2.

As to `C[C@H](O)CN1CCN(c2cccc(Nc3nc4c(-c5ccc(S(C)(=O)=O)cc5)cccn4n3)c2)CC1` [Example 142, (S)-1-(4-{3-[8-(4-Methanesulfonyl-phenyl)-[1,2,4]triazolo[1,5-a]pyridin-2-ylamino]-phenyl}-piperazin-1-yl)-propan-2-ol], the IC50 on human FAK was determined as 935 nM; on human JAK2, 0.75 nM.

Consider `C[C@@H](O)CN1CCN(c2cccc(Nc3nc4c(-c5ccc(S(C)(=O)=O)cc5)cccn4n3)c2)CC1` [Example 143, (R)-1-(4-{3-[8-(4-Methanesulfonyl-phenyl)-[1,2,4]triazolo[1,5-a]pyridin-2-ylamino]-phenyl}-piperazin-1-yl)-propan-2-ol], for which the IC50 stood at 1990 nM on human FAK and 1.13 nM at human JAK2.

Take `CC(C)(O)CN1CCN(c2cccc(Nc3nc4c(-c5ccc(S(C)(=O)=O)cc5)cccn4n3)c2)CC1` [Example 144, 1-(4-{3-[8-(4-Methanesulfonyl-phenyl)-[1,2,4]triazolo[1,5-a]pyridin-2-ylamino]-phenyl}-piperazin-1-yl)-2-methyl-propan-2-ol]: the IC50 at human FAK came to 2050 nM; at human JAK2 it was 2.61 nM.

`CS(=O)(=O)c1ccc(-c2cccn3nc(Nc4ccc5c(c4)CCC(N4CCOCC4)CC5)nc23)cc1` (stereo not shown) [Example 145, [8-(4-Methanesulfonyl-phenyl)-[1,2,4]triazolo[1,5-a]pyridin-2-yl]-(7-morpholin-4-yl-6,7,8,9-tetrahydro-5H-benzocyclohepten-2-yl)-amine]: the values for the IC50 at human FAK and at human JAK2 were 671 nM and 1.55 nM, respectively.

Broadly, the IC50 is the midpoint of a concentration-inhibition curve.
